A word on the IC50: it is the midpoint of a concentration-inhibition curve. Broadly, the EC50 is the concentration needed to bring the measured effect to its halfway point. One may read the AC50 as the midpoint of the concentration-response curve, whichever way the signal moves.

For one test, the target named is Protein Rev (Human immunodeficiency virus type 1 group M subtype B (isolate HXB2)(HIV-1), UniProt P04618). Put plainly: blockers of HIV Rev/RRE RNA complex – biochemical, fluorescence polarization, HIV-1, dose response (AID 434976). Also noted: species or system Human immunodeficiency virus 1. In general terms: Fluorescence polarisation rises when a labelled molecule tumbles more slowly, as on binding a larger partner.
Sequence of Protein Rev (P04618 whole entry): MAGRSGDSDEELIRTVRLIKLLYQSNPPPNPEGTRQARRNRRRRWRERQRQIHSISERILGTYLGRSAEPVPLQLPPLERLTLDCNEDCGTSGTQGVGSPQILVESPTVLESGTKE

The target in test [1] is Female germline-specific tumor suppressor gld-1 (Caenorhabditis elegans, UniProt Q17339). Put plainly: blockers of GLD-1/TGE RNA complex formation – biochemical, fluorescence polarization, C. elegans, dose response (AID 2802).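 Further: fluorescence polarization of labeled TGE RNA bound by purified gld-1 protein.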
Sequence of Female germline-specific tumor suppressor gld-1 (Q17339 whole entry): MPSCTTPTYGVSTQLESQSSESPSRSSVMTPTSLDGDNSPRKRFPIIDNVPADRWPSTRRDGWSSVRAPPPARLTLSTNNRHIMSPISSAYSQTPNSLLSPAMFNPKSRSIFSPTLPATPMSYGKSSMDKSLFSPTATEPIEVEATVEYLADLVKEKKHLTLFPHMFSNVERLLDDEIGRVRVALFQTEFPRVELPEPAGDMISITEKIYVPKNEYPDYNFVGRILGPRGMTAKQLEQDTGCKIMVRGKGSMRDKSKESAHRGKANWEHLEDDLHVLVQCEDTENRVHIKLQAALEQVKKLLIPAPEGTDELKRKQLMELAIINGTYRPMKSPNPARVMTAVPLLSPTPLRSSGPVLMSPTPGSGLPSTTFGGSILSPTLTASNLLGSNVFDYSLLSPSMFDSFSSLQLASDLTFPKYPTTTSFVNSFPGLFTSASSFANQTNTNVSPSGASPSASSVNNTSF
Test [2] concerns the target T1, RNA-binding protein pos-1 (Caenorhabditis elegans, UniProt G5EF15).
T1 sequence (G5EF15 whole entry): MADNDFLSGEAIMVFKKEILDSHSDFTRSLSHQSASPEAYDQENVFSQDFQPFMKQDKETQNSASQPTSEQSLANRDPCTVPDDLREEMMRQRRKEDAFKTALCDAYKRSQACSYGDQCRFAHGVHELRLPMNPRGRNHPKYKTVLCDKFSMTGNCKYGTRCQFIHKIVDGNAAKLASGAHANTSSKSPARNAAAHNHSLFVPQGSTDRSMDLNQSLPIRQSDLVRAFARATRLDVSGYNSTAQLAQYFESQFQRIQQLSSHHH
Put plainly: disruptors of C. elegans POS-1 RNA interaction – biochemical, fluorescence polarization, dose response (AID 1964).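 Further: purified POS-1 fused to maltose binding protein made in E. coli; potency of compounds blocking POS-1 binding to fluorescent RNA.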

For test [3], the target named is T2, Zinc finger protein mex-5 (Caenorhabditis elegans, UniProt Q9XUB2).
T2 sequence (Q9XUB2 whole entry): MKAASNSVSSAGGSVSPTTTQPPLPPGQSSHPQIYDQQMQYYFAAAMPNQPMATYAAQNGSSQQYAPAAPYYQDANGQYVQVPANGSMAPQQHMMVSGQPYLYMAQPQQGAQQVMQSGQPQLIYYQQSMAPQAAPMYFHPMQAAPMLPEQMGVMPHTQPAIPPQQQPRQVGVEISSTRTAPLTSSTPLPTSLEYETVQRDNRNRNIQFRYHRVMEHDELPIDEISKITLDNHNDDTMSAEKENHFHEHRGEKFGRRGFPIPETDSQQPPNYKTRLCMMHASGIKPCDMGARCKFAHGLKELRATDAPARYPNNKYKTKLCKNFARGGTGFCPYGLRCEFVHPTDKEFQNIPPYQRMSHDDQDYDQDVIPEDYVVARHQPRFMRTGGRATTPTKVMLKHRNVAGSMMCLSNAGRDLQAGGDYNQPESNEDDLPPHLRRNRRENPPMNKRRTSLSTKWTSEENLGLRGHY
Put plainly: potency of MEX-5 RNA-binding blockers – biochemical, C. elegans, fluorescence polarization, dose response (AID 1960).

Test [4] concerns the target T3, Heat shock factor protein 1 (Mus musculus, UniProt P38532).
T3 sequence (P38532 whole entry): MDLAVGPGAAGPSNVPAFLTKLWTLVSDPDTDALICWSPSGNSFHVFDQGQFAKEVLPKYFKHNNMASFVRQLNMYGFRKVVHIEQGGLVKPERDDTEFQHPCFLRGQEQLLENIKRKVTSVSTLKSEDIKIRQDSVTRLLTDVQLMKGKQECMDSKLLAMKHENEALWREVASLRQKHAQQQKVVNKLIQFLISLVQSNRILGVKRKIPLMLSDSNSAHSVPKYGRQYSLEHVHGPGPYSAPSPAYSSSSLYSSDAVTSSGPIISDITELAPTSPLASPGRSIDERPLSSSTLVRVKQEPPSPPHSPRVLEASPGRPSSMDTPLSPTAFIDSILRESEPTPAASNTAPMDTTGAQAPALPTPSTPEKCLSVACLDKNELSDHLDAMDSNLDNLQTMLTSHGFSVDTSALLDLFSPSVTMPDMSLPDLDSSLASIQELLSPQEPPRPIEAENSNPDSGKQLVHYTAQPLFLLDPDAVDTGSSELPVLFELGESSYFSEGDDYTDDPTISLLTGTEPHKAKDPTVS
Nature of the test: decrease of HSF1-responsive luciferase luminescence – cell-based, NIH3T3, dose retest, confirmation (AID 2382).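 Further: NIH3T3 fibroblasts with HSF1-driven luciferase reporter stressed by proteasome inhibitor MG132; luminescence from HSF1-driven luciferase expression after 8 hours of MG132 stress.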 The test is classed as functional.

Test [5] deals with Heat shock protein HSP 90-alpha (Homo sapiens, UniProt P07900). Nature of the test: Luminescence-based dose response biochemical high throughput screening assay for inhibitors of the Heat Shock Protein 90 (HSP90). [Related pubchem assays: 1831 (Summary AID.), 1846 (Confirmation screen.), 1789 (Primary screen.)].
Test [6] can be described thus: HEK-293T cell viability reduction – luminescence, B-cell screen hits, cytotoxicity control for BCR NF-kB inhibitor project, dose response (AID 489021).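 Further: HEK-293T cells carrying an NF-kB luciferase reporter; cells exposed to compound for about 14 hours before viability readout.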 It is filed as functional, cell-based.
The target in test [7] is T4, Luciferin 4-monooxygenase (Photinus pyralis, UniProt P08659). Put plainly: Counter Screen for Luciferase-based Assay Positives. [Related pubchem assays: 620, 618, 411 ]. (In general: The purpose of a counterscreen is to sort out artefacts and off-target activity.)
T4 sequence (P08659 whole entry): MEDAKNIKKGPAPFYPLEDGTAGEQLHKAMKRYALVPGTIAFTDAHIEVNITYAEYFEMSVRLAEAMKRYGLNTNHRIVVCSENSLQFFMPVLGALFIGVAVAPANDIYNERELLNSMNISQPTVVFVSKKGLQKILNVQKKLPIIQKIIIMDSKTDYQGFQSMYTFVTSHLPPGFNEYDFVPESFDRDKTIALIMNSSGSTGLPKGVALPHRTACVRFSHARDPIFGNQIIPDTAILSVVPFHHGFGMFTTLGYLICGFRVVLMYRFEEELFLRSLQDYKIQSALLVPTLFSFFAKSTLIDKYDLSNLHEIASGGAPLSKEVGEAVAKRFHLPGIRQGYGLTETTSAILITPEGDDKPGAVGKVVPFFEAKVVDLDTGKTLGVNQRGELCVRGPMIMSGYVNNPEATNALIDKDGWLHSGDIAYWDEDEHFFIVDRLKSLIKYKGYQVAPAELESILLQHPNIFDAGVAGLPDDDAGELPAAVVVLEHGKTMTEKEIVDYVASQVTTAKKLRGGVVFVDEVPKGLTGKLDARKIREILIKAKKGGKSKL
Test [8] concerns HEK293. Put plainly: PMA/Ionomycin induced NF-kB luciferase assay in 293- NF-kB-Luc stable cells. [Related pubchem assays: 1299, 1270, 1295, 1375, 1287, 1281, 1293, 1291, 1289, 1280, 465, 1364, 1282, 1372, 1365, 1370, 1367, 1366, 1269, 1373, 1292, 1290, 1302, 1371, 1283, 1271, 1294, 1374, 1368, 1369 ]. The test is classed as functional, cell-based. As to conditions: Homo sapiens.

Test [9] concerns the target T4, Luciferin 4-monooxygenase. Put plainly: In vitro luciferase assay using purified luciferase. [Related pubchem assays: 1299, 1270, 1295, 1375, 1287, 1281, 1293, 1291, 1289, 1280, 465, 1364, 1282, 1372, 1365, 1370, 1367, 1366, 1266, 1373, 1292, 1290, 1302, 1371, 1283, 1271, 1294, 1374, 1368, 1369 ].
For test [10], the target named is Glyceraldehyde-3-phosphate dehydrogenase (Homo sapiens, UniProt P04406).
Sequence of Glyceraldehyde-3-phosphate dehydrogenase (P04406 whole entry): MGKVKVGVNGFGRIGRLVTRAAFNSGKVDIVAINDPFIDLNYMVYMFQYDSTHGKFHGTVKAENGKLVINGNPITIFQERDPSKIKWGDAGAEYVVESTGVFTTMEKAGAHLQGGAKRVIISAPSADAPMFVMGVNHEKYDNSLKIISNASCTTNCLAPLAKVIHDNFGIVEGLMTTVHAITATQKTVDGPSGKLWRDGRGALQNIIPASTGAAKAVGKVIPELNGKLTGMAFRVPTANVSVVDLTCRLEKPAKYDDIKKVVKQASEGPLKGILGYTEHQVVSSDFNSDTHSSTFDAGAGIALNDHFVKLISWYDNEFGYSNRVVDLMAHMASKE
The next test has as its system HT-1080. Nature of the test: HT1080 cell viability loss – fluorescence readout (AID 620). Conditions: Homo sapiens. It is filed as functional, cell-based.
For test [11], the system named is HEK293. Put plainly: Cytotoxicity assay in HEK293 cells. [Related pubchem assays (depositor defined):AID1266, AID1269, AID1270, AID1271, AID1280, AID1281, AID1282, AID1283, AID1287, AID1289, AID1290, AID1291, AID1292, AID1293, AID1294, AID1295, AID1299, AID1302, AID1364, AID1365, AID1366, AID1367, AID1369, AID1370, AID1371, AID1372, AID1373, AID1374, AID1375, AID1384 …. It is filed as functional, cell-based. As to conditions: Homo sapiens.

Test [12] in a line: blockers of HIV-1 envelope-mediated cell-cell fusion – cherry-pick, dose response (AID 652057). It is filed as functional, cell-based.
Test [13] is described as follows: off-target signal loss in HeLa-CEM21 co-culture – HeLa F-luc CTL cells, cherry-picked, counter-screen for HIV-1 Env fusion inhibitor project, dose response (AID 652040).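 Further: potency for signal decrease marking cytotoxic or nonspecific inhibition.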 The test is classed as functional, cell-based.
Test [14] is described as follows: HIV-1 AD8 envelope cell-cell fusion blockers – cherry-pick, dose response (AID 652062).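 Further: luciferase signal from cell-cell fusion driven by HIV-1 clade B AD8 Env; potency is for inhibitors of fusion seen as a drop in luminescence.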 The test is classed as functional, cell-based.
Test [15] has as its target T5, Alkaline phosphatase, tissue-nonspecific isozyme (Homo sapiens, UniProt P05186).
T5 sequence (P05186 whole entry): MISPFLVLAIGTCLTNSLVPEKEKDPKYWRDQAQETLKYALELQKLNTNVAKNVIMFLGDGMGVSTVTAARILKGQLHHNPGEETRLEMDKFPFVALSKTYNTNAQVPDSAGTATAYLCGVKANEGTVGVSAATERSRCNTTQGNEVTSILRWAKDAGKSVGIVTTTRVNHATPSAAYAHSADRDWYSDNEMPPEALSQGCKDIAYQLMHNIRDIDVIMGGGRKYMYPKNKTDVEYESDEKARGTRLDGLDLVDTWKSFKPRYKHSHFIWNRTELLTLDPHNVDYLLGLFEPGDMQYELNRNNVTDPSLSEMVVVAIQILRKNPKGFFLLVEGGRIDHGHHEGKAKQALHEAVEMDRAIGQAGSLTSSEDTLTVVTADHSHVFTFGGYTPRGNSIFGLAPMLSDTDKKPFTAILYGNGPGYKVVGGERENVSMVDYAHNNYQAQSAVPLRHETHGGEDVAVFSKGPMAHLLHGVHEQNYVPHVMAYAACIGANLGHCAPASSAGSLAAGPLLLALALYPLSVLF

Test [16] is described as follows: Trypanosoma cruzi growth suppression in host cells – NIH3T3 host cells, beta-gal luminescence, confirmation (AID 2044).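 Further: intracellular parasites grown in NIH/3T3 mouse fibroblasts as host cells; luminescent beta-galactosidase reporter signal from transgenic T. cruzi replicating inside host cells; inhibitors lower the luminescence signal.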 The test is classed as functional, cell-based.
Test [17] in a line: NIH3T3 cell viability loss – ATP luminescence, mouse fibroblasts, counter-screen, dose response (AID 2010).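 Further: cells exposed to compound for about 90 hours before reading.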 It is filed as functional, cell-based.
Test [18] deals with Intestinal-type alkaline phosphatase (Homo sapiens, UniProt P09923). Put plainly: activation of human intestinal alkaline phosphatase – biochemical, dose response (AID 488873). The test is classed as functional.
Sequence of Intestinal-type alkaline phosphatase (Homo sapiens, UniProt P09923) (P09923 whole entry): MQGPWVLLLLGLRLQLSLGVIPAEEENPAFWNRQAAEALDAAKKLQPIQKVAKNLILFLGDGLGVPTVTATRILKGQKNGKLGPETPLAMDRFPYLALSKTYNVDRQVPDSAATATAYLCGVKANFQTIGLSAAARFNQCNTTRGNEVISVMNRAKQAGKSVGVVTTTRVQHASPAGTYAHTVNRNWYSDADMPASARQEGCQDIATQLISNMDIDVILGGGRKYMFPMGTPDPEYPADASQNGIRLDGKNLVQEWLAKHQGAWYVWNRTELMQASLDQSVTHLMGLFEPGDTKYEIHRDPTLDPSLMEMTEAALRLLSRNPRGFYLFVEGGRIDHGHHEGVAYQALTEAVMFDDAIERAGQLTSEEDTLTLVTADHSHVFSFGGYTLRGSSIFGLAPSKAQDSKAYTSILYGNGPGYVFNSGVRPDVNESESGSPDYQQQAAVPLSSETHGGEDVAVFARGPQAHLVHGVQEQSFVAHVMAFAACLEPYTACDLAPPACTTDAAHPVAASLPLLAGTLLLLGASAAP
Test [19] concerns the target Intestinal-type alkaline phosphatase (Mus musculus, UniProt P24822). Put plainly: PubChem AID 488785. The test is classed as functional.
The target of test [20] is T5, Alkaline phosphatase, tissue-nonspecific isozyme. Nature of the test: TNAP enzyme inhibition by screening hits, dose response, selectivity assay for mouse IAP inhibitor project, biochemical, human TNAP, uHTS hits (AID 488906). The test is classed as functional.

Calls of active or inactive are those of the source.

Sequence of Intestinal-type alkaline phosphatase (Mus musculus, UniProt P24822) (P24822 whole entry): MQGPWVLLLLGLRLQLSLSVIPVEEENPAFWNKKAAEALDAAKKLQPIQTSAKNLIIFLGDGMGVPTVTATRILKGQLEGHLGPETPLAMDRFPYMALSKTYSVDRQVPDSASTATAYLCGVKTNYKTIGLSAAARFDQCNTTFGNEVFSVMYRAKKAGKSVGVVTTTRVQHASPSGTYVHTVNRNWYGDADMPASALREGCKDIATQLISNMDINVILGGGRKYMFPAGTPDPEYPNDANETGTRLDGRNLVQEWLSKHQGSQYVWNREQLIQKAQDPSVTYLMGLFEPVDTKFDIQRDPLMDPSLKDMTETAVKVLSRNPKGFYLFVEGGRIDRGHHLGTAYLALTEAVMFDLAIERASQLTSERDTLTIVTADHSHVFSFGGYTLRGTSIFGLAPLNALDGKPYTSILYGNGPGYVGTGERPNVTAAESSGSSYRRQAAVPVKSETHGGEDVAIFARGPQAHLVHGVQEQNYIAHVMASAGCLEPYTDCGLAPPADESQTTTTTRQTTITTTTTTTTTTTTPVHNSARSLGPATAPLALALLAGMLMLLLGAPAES

Take `CCCCN(C(=O)c1ccc([N+](=O)[O-])o1)c1c(N)n(CC(C)C)c(=O)[nH]c1=O`: the IC50 was 7.26 µM (active) on Protein Rev and 2.74 µM (active) in test [1]. Also, the EC50 was 18.7 µM (active) in [2] and 16 µM (active) in [3].
On to `Cc1ccc(/C=C2\SC(=S)N(CCCC(=O)Nc3ccccn3)C2=O)cc1`, for which the EC50 in [4] is 1.51 µM (active). The IC50 in [5] was 17.8 µM (not active); in test [6] it was > 80 µM (inactive).
Consider `O=C(c1ccc(Cl)cc1)N1CCCCC(Sc2nnc(-c3ccc4c(c3)OCO4)o2)C1=O` (configuration not stated), for which the EC50 in [7] was 4.07 µM (active); in the test with HEK293 [8] it was 4.25 µM (not active); in test [9], > 8 µM (not active); with HT-1080 it was > 50 µM (not active); in the test with HEK293 [11], 2.19 µM (active). Besides, the IC50 in test [10] was > 100 µM (not active). Moreover, the AC50 in test [12] was 2.78 µM (active); in test [13] it was 13.5 µM (active); in test [14] it was 5.75 µM (active).
`CC(C)c1ccc(NC(=O)NC2CCN(CC(=O)Nc3cccc4ccccc34)CC2)cc1`: the EC50 in [15] is > 100 µM (not active); in [16], 1.88 µM (active); in [17], > 60 µM (inconclusive); in test [18] it was > 100 µM (inactive). For the same compound, the IC50 in test [19] was 10.8 µM (active); in test [20] it was 59.3 µM (active).

For the origin of these results see ChEMBL document CHEMBL1201862, “PubChem BioAssay data set” (2004).
